Patent publication US8309577B2, “Quinuclidine compounds as α-7 nicotinic acetylcholine receptor ligands” (Bristol-Myers Squibb Company, priority 2008, dated 2012)

target: T1, α-7 nicotinic acetylcholine receptor channel expressed in HEK 293 cells (Rattus norvegicus, UniProt Q05941); assay: Ca2+-sensitive fluorescence-based FLIPR assay, α7 nicotinic ACh receptor channel function (agonist); format: cell-based; conditions: FLIPR α7 activity rating (EC50, nM), Table 1; HEK 293 cells, agonist Ca2+ flux
T1 construct: expressed in transfected cells
Summary of the method: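 Potency and efficacy derived from kinetic FLIPR Ca²⁺-flux fluorescence, recorded 3 min after compound addition in Hanks buffer following a 10 s baseline.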

T1 sequence (Q05941 23-502): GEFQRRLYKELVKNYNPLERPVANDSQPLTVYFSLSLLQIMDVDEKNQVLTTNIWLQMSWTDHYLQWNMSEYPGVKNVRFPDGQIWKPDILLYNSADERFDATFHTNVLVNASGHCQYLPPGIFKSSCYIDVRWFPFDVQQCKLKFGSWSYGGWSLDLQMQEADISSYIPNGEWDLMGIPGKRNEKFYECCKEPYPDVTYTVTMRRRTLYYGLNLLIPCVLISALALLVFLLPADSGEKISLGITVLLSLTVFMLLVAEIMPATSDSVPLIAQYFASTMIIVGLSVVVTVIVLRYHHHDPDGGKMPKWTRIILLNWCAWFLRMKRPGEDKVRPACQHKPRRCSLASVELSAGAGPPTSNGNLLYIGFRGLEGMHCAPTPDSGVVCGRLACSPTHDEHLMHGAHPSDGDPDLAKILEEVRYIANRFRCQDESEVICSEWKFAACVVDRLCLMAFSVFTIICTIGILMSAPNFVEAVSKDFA

Row | Structure (SMILES) | EC50
1 | Cc1ccc2nc(NC3=NC[C@@]4(CN5CCC4CC5)O3)cnc2c1 [Example 242, (R)—N-(6-Methylquinoxalin-2-yl)-4H-1′-azaspiro[oxazole-5,3′-bicyclo[2.2.2]octan]-2-amine] | 100 to 1000 nM
2 | Cc1ccc2ncc(NC3=NC[C@@]4(CN5CCC4CC5)O3)nc2c1 [Example 243, (R)—N-(7-Methylquinoxalin-2-yl)-4H-1′-azaspiro[oxazole-5,3′-bicyclo[2.2.2]octan]-2-amine] | 1000 to 100000 nM
3 | c1cncc(-c2cc(NC3=NC[C@@]4(CN5CCC4CC5)O3)ncn2)c1 [Example 244, (R)—N-(6-(Pyridin-3-yl)pyrimidin-4-yl)-4H-1′-azaspiro[oxazole-5,3′-bicyclo[2.2.2]octan]-2-amine] | < 100 nM
4 | COc1ncc(-c2cc(NC3=NC[C@@]4(CN5CCC4CC5)O3)ncn2)cn1 [Example 245, (R)—N-(2′-Methoxy-4,5′-bipyrimidin-6-yl)-4H-1′-azaspiro[oxazole-5,3′-bicyclo[2.2.2]octan]-2-amine] | < 100 nM
5 | c1cc(-c2cc(NC3=NC[C@@]4(CN5CCC4CC5)O3)ncn2)ccn1 [Example 246, (R)—N-(6-(Pyridin-4-yl)pyrimidin-4-yl)-4H-1′-azaspiro[oxazole-5,3′-bicyclo[2.2.2]octan]-2-amine] | < 100 nM
6 | Cc1nc(NC2=NC[C@@]3(CN4CCC3CC4)O2)ccc1C#N [Example 247, (R)-6-(4H-1′-Azaspiro[oxazole-5,3′-bicyclo[2.2.2]octane]-2-ylamino)-2-methylnicotinonitrile] | 100 to 1000 nM
7 | Cc1cc(NC2=NC[C@@]3(CN4CCC3CC4)O2)nc(C)c1C#N [Example 248, (R)-6-(4H-1′-Azaspiro[oxazole-5,3′-bicyclo[2.2.2]octane]-2-ylamino)-2,4-dimethylnicotinonitrile] | 100 to 1000 nM
8 | c1ccc(-c2ccc(NC3=NC[C@@]4(CN5CCC4CC5)O3)nn2)cc1 [Example 249, (R)—N-(6-Phenylpyridazin-3-yl)-4H-1′-azaspiro[oxazole-5,3′-bicyclo[2.2.2]octan]-2-amine] | 1000 to 100000 nM
9 | Clc1ccc(NC2=NC[C@@]3(CN4CCC3CC4)O2)nc1Cl [Example 251, (R)—N-(5,6-Dichloropyridin-2-yl)-4H-1′-azaspiro[oxazole-5,3′-bicyclo[2.2.2]octan]-2-amine] | < 100 nM
10 | Clc1cnc(NC2=NC[C@@]3(CN4CCC3CC4)O2)cc1Cl [Example 252, (R)—N-(4,5-Dichloropyridin-2-yl)-4H-1′-azaspiro[oxazole-5,3′-bicyclo[2.2.2]octan]-2-amine] | < 100 nM
11 | Cc1cc(NC2=NC[C@@]3(CN4CCC3CC4)O2)ncc1Cl [Example 253, (R)—N-(5-Chloro-4-methylpyridin-2-yl)-4H-1′-azaspiro[oxazole-5,3′-bicyclo[2.2.2]octan]-2-amine] | < 100 nM
12 | Clc1ccc(NC2=NC[C@@]3(CN4CCC3CC4)O2)nn1 [Example 254, (R)—N-(6-Chloropyridazin-3-yl)-4H-1′-azaspiro[oxazole-5,3′-bicyclo[2.2.2]octan]-2-amine] | 100 to 1000 nM
13 | Brc1ccc(NC2=NC[C@@]3(CN4CCC3CC4)O2)nn1 [Example 255, (R)—N-(6-Bromopyridazin-3-yl)-4H-1′-azaspiro[oxazole-5,3′-bicyclo[2.2.2]octan]-2-amine] | 100 to 1000 nM
14 | Clc1ccc(-c2cc(NC3=NC[C@@]4(CN5CCC4CC5)O3)ncn2)cc1 [Example 256, (R)—N-(6-(4-Chlorophenyl)pyrimidin-4-yl)-4H-1′-azaspiro[oxazole-5,3′-bicyclo[2.2.2]octan]-2-amine] | < 100 nM
15 | Clc1cccc(-c2cc(NC3=NC[C@@]4(CN5CCC4CC5)O3)ncn2)c1 [Example 257, (R)—N-(6-(3-Chlorophenyl)pyrimidin-4-yl)-4H-1′-azaspiro[oxazole-5,3′-bicyclo[2.2.2]octan]-2-amine] | < 100 nM
16 | Cc1nnc(NC2=NC[C@@]3(CN4CCC3CC4)O2)o1 [Example 258, (R)—N-(5-Methyl-1,3,4-oxadiazol-2-yl)-4H-1′-azaspiro[oxazole-5,3′-bicyclo[2.2.2]octan]-2-amine] | 1000 to 100000 nM
17 | Cc1nsc(NC2=NC[C@@]3(CN4CCC3CC4)O2)n1 [Example 259, (R)—N-(3-Methyl-1,2,4-thiadiazol-5-yl)-4H-1′-azaspiro[oxazole-5,3′-bicyclo[2.2.2]octan]-2-amine] | 1000 to 100000 nM
18 | Cc1noc(NC2=NC[C@@]3(CN4CCC3CC4)O2)n1 [Example 260, (R)—N-(3-Methyl-1,2,4-oxadiazol-5-yl)-4H-1′-azaspiro[oxazole-5,3′-bicyclo[2.2.2]octan]-2-amine] | 100 to 1000 nM
19 | CSc1cc(NC2=NC[C@@]3(CN4CCC3CC4)O2)ncn1 [Example 261, (R)—N-(6-(Methylthio)pyrimidin-4-yl)-4H-1′-azaspiro[oxazole-5,3′-bicyclo[2.2.2]octan]-2-amine] | < 100 nM
20 | c1ccn2c(NC3=NC[C@@]4(CN5CCC4CC5)O3)nnc2c1 [Example 262, (R)—N-([1,2,4]Triazol[4,3-a]pyridine-3-yl)-4H-1′-azaspiro[oxazole-5,3′-bicyclo[2.2.2]octan]-2-amine] | 1000 to 100000 nM

Row | Structure (SMILES) | EC50
21 | Brc1cnc2nc(NC3=NC[C@@]4(CN5CCC4CC5)O3)sc2n1 [Example 263, (R)—N-(6-bromothiazolo[5,4-b]pyrazin-2-yl)-4H-1′-azaspiro[oxazole-5,3′-bicyclo[2.2.2]octan]-2-amine] | < 100 nM
22 | CSc1cnc2nc(NC3=NC[C@@]4(CN5CCC4CC5)O3)sc2n1 [Example 264, (R)—N-(6-(methylthio)thiazolo[5,4-h]pyrazin-2-yl)-4H-1′-azaspiro[oxazole-5,3′-bicyclo[2.2.2]octan]-2-amine] | 100 to 1000 nM
23 | COc1ncc2nc(NC3=NC[C@@]4(CN5CCC4CC5)O3)sc2n1 [Example 265, (R)—N-(5-Methoxythiazolo[5,4-d]pyrimidin-2-yl)-4H-1′-azaspiro[oxazole-5,3′-bicyclo[2.2.2]octan]-2-amine] | < 100 nM
24 | CCc1nnc(NC2=NC[C@@]3(CN4CCC3CC4)O2)o1 [Example 266, (R)—N-(5-Ethyl-1,3,4-oxadiazol-2-yl)-4H-1′-azaspiro[oxazole-5,3′-bicyclo[2.2.2]octan]-2-amine] | 1000 to 100000 nM
25 | Clc1cnc(NC2=NC[C@@]3(CN4CCC3CC4)O2)c(Cl)c1 [Example 267, (R)—N-(3,5-Dichloropyridin-2-yl)-4H-1′-azaspiro[oxazole-5,3′-bicyclo[2.2.2]octan]-2-amine] | < 100 nM
26 | Clc1ccc2nc(NC3=NC[C@@]4(CN5CCC4CC5)O3)sc2n1 [Example 268, (R)—N-(5-chlorothiazolo[5,4-b]pyridin-2-yl)-4H-1′-azaspiro[oxazole-5,3′bicyclo[2.2.2]octan]-2-amine] | < 100 nM
27 | CN(C)c1ncc2nc(NC3=NC[C@@]4(CN5CCC4CC5)O3)sc2n1 [Example 269, (R)—N^5,N^5-dimethyl-N^2-(4H-1′-azaspiro[oxazole-5,3′-bicyclo[2.2.2]octane]-2-yl)thiazolo[5,4-d]pyrimidine-2,5-diamine] | 1000 to 100000 nM
28 | c1cn2nc(NC3=NC[C@@]4(CN5CCC4CC5)O3)nc2cn1 [Example 270, (R)—N-([1,2,4]Triazol[1,5-a]pyrazin-2-yl)-4H-1′-azaspiro[oxazole-5,3′-bicyclo[2.2.2]octan]-2-amine] | < 100 nM
29 | c1cnc2sc(NC3=NC[C@@]4(CN5CCC4CC5)O3)nc2c1 [Example 271, (R)—N-(Thiazolo[5,4-h]pyridin-2-yl)-4H-1′-azaspiro[oxazole-5,3′-bicyclo[2.2.2]octan]-2-amine] | < 100 nM
30 | c1cnc2sc(NC3=NC[C@@]4(CN5CCC4CC5)O3)nc2n1 [Example 272, (R)—N-(Thiazolo[5,4-b]pyrazin-2-yl)-4H-1′-azaspiro[oxazole-5,3′-bicyclo[2.2.2]octan]-2-amine] | < 100 nM
31 | COc1nc(C)nc2sc(NC3=NC[C@@]4(CN5CCC4CC5)O3)nc12 [Example 273, (R)—N-(7-Methoxy-5-methylthiazolo[5,4-d]pyrimidin-2-yl)-4H-1′-azaspiro[oxazole-5,3′-bicyclo[2.2.2]octan]-2-amine] | 1000 to 100000 nM
32 | COc1ncnc2sc(NC3=NC[C@@]4(CN5CCC4CC5)O3)nc12 [Example 274, (R)—N-(7-Methoxythiazolo[5,4-d]pyrimidin-2-yl)-4H-1′-azaspiro[oxazole-5,3′-bicyclo[2.2.2]octan]-2-amine] | 1000 to 100000 nM
33 | N#Cc1cnc(NC2=NC[C@@]3(CN4CCC3CC4)O2)s1 [Example 275, (R)-2-(4H-1′-Azaspiro[oxazole-5,3′-bicyclo[2.2.2]octan]-2-ylamino)thiazole-5-carbonitrile] | 100 to 1000 nM
34 | c1cc2nc(NC3=NC[C@@]4(CN5CCC4CC5)O3)ccc2cn1 [Example 277, (R)—N-(1,6-Naphthyridin-2-yl)-4H-1′-azaspiro[oxazole-5,3′-bicyclo[2.2.2]octan]-2-amine] | < 100 nM
35 | Clc1cc(Cl)c2cnc(NC3=NC[C@@]4(CN5CCC4CC5)O3)cc2c1 [Example 279, (R)—N-(6,8-Dichloroisoquinolin-3-yl)-4H-1′-azaspiro[oxazole-5,3′-bicyclo[2.2.2]octan]-2-amine] | 100 to 1000 nM
36 | Clc1ccc2cnc(NC3=NC[C@@]4(CN5CCC4CC5)O3)cc2c1Cl [Example 281, (R)—N-(5,6-Dichloroisoquinolin-3-yl)-4H-1′-azaspiro[oxazole-5,3′-bicyclo[2.2.2]octan]-2-amine] | < 100 nM
37 | Clc1ccnc(NC2=NC[C@@]3(CN4CCC3CC4)O2)c1Cl [Example 282, (R)—N-(3,4-Dichloropyridin-2-yl)-4H-1′-azaspiro[oxazole-5,3′-bicyclo[2.2.2]octan]-2-amine] | 100 to 1000 nM
38 | Clc1cccnc1NC1=NC[C@@]2(CN3CCC2CC3)O1 [Example 283, (R)—N-(3-Chloropyridin-2-yl)-4H-1′-azaspiro[oxazole-5,3′-bicyclo[2.2.2]octan]-2-amine] | 100 to 1000 nM
39 | Fc1cc(Cl)cnc1NC1=NC[C@@]2(CN3CCC2CC3)O1 [Example 284, (R)—N-(5-Chloro-3-fluoropyridin-2-yl)-4H-1′-azaspiro[oxazole-5,3′-bicyclo[2.2.2]octan]-2-amine] | < 100 nM
